Source: US20170008928A1, “NOVEL PEPTIDES AND PEPTIDE DERIVATIVES AND USES THEREOF” (Novo Nordisk A/S, priority 2015, published 2017)
Where two headings read alike, the source gives them in different places. Starred links: 1 amine or outer side, 2 acyl side, 3 side chain; linkers in the order of their positions; H or OH if unused. Non-standard residues stand in square brackets, D forms with d. Residues, ends and D or L forms follow the SMILES beside them. *: point of attachment. Phe(4-CH2SO3H) = N[C@@H](Cc1ccc(CS(=O)(=O)O)cc1)C(=O)O; sY = N[C@@H](Cc1ccc(OS(=O)(=O)O)cc1)C(=O)O; C18 diacid = O=C(O)CCCCCCCCCCCCCCCCC(=O)*; γGlu = O=C(O)[C@H](CCC(=O)[*:2])N[*:1]; Met(O2) = CS(=O)(=O)CC[C@H](N)C(=O)O; NMeF = CN[C@@H](Cc1ccccc1)C(=O)O; dNMeD = CN[C@H](CC(=O)O)C(=O)O; Nle = CCCC[C@H](N)C(=O)O; AEEA = NCCOCCOCC(=O)O

How the values were obtained:
[1] = molecular target: T1, human cholecystokinin-1 receptor (CCK-1R) (Homo sapiens, UniProt P32238); experiment: In vitro potency on CCK-1R, whole cell functional assay (IP1 accumulation, IP-One HTRF); format: cell-based
T1 construct: host or cells: 1321-N1 cells
T1 sequence (P32238 1-428): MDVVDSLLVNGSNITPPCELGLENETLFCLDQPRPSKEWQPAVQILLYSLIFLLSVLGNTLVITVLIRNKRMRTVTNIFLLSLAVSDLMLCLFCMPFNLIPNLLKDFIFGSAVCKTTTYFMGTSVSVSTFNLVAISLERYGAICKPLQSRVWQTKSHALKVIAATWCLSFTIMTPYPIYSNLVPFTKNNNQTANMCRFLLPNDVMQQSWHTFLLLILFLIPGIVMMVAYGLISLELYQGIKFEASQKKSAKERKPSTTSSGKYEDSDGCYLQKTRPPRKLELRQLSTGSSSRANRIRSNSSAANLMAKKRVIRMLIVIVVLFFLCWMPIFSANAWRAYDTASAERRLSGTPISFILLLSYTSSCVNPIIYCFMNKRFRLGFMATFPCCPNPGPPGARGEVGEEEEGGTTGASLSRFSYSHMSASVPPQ

[2] = molecular target: T2, human cholecystokinin-2 receptor (CCK-2R) (Homo sapiens, UniProt P32239); experiment: In vitro potency on CCK-2R, whole cell functional assay (IP1 accumulation, IP-One HTRF); format: cell-based
T2 construct: host or cells: 1321-N1 cells (plasma membranes prepared by Evotec AG Hamburg)
T2 sequence (P32239 1-447): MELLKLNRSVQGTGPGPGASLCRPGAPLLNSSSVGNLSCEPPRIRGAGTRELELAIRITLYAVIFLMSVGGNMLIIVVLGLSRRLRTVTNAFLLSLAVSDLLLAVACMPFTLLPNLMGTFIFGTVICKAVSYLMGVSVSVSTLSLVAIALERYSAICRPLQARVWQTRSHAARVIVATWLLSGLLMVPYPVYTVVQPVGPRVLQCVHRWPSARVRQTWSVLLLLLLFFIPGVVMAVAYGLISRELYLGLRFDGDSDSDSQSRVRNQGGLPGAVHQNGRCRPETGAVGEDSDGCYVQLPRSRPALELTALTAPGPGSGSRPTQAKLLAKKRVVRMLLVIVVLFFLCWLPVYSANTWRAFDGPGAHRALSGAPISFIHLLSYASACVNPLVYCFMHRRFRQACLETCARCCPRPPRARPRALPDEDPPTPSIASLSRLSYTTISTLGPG

[3] = molecular target: T2, human cholecystokinin-2 receptor (CCK-2R); experiment: In vitro receptor binding to CCK-2R, SPA displacement of [125I]-CCK-8s from plasma membranes
[4] = molecular target: T1, human cholecystokinin-1 receptor (CCK-1R); experiment: In vitro receptor binding to CCK-1R, SPA displacement of [125I]-CCK-8s from plasma membranes
Experimental: The in vitro binding affinity is a measure of the strength of attraction between a receptor and its ligand.
Displacement of radio ligand was measured as reduction in light emission from SPA beads.
The cells used in these assays were 1321-N1 cells stably expressing the CCK-1R or the CCK-2R (Perkin Elmer product numbers ES-530-A and ES-531-A, respectively see www.perkinelmer.com/Catalog/Product/ID/ES-530-A or -ES-531-A, respectively).
The cells were cultured in an incubator (95% RH (relative humidity), 5% (of standard atmospheric pressure) CO2, 37° C.) in cell culture medium (DMEM (Lonza catalogue BE-12-604F/U1), with 10% (v/v) Foetal Calf Serum (FCS, Gibco catalogue 16140-071), 1% (w/w) Sodium pyruvate (Gibco catalogue 11360-039), 500 μg/ml Geneticin® (G418) (Gibco catalogue 10131-027), 25 μg/ml Zeocin™ (Invitrogen catalogue R250-05), 1% (w/w) Pen/Strep (Gibco catalogue 15140-122)).
Plasma membranes were prepared by Evotec AG Hamburg by use of the ParrBomb (#4635, Parr Instrument Company). Cells were lysed with a lysis buffer (50 mM Tris, 2.5 mM EDTA, pH7) with added protease inhibitors (Complete Proteaseinhibitors EDTA-free (#05056489001, Roche), 1 tablet per 50 mL lysis buffer). The membrane fraction was separated by centrifugation. First, the cell lysate was centrifuged at 1000×g for 10 minutes at 4° C. The pellet was discarded and the supernatant was then centrifuged at 100.000×g for 30 minutes at 4° C. The supernatant was discarded and the pellet was re-suspended in 1 ml/5×10^8 cells ice cold membrane buffer (50 mM Tris, 320 mM Sucrose and Complete Proteaseinhibitors EDTA-free (#05056489001, Roche); pH7.4) and homogenised with dounce homogeniser. The protein concentration was determined using the Pierce™ BCA Protein Assay Kit according to kit manual, and the membrane preparation was adjust to the desired protein concentration with membrane buffer and aliquoted into pre-cooled tubes, snap-frozen in liquid nitrogen, and stored at −80° C.
CCK receptor binding assays were performed in 96-well Optiplates (Cat #6005290, PerkinElmer, Waltham, Mass., USA) in a total volume of 200 μl per well. CCK derivatives in 80% DMSO stock solutions of 800 μM were serially diluted […] in assay buffer (50 mM Tris/HCl, 4.5 mM MgCl2, […], 0.02% Tween 20, 0.25% ovalbumin, 0.1% pluronic F-68, pH 7.4) to final assay concentrations ranging from 10^−5 M (ten μM) to 10^−12 M (one pM).
Fifty μl of reference or test compounds were added to the Optiplates (using technical duplicates, i.e. two wells of each sample, one data point being the average of two wells), followed by addition of 150 μl of the mixture of SPA bead, radio ligand, and plasma membrane. The plates were sealed and incubated in the dark at +22° C. for 2 hours on a IKA MTS plate shaker (IKA-Werke D-79219 Staufen) set at 300 rpm and thereafter centrifuged at 1500 rpm for 10 minutes in a Heraeus Multifuge 3s centrifuge. SPA bead light emission was measured in a TopCount NXT (PerkinElmer) for 2 min/well after a delay of 60 min.
As a measure of compound affinity, calculations were performed in order to determine the half maximal inhibitory concentration (the IC50 value).
The data from the TopCounter were given as counts per minute (CPM). The CPM was plotted as a function of the concentration of compound. Dose-response curves were obtained, and IC50 values were calculated, by a nonlinear three-parameter logistic equation (log(agonist) vs response) with hillslope=−1, and shared top and bottom using the software programme GraphPad Prism v 6.0 (Graph Pad software, La Jolla, Calif., USA). The highest dose tested was 10^−5 M (1×10^7 pM).
The preference of a specific compound for the CCK-1 receptor, or the CCK-1R selectivity, may be defined as IC50 (CCK-2R)/IC50 (CCK-1R).
A minimum of three biological replicates was measured for each test compound on separate assay plates.

[5] = 1321-N1 cells stably expressing CCK-1R, IP1 accumulation, average of min. three replicates, read-out: EC50 (CCK-1R)
[6] = 1321-N1 cells stably expressing CCK-2R, IP1 accumulation, highest dose tested 1×10^6 pM, read-out: EC50 (CCK-2R)
[7] = displacement of [125I]-CCK-8s, plasma membranes of 1321-N1 cells expressing CCK-2R, highest dose tested 1×10^7 pM, read-out: IC50 (CCK-2R)

Row | SMILES | EC50 [1, 5] [nM] | EC50 [2, 6] [nM] | IC50 [3] [nM] | IC50 [4] [nM] | other results
1 | CCCC[C@H](NC(=O)[C@H](Cc1c[nH]c2ccccc12)NC(=O)CNC(=O)[C@H](CO)NC(=O)[C@H](Cc1ccc(OS(=O)(=O)O)cc1)NC(=O)[C@@H](N)CC(=O)O)C(=O)N(C)[C@H](CC(=O)O)C(=O)N(C)[C@@H](Cc1ccccc1)C(N)=O [Example 79, Asp-sTyr-Ser-Gly-Trp-Nle-DMeAsp-MePhe-amide] (H-D[sY]SGW[Nle][dNMeD][NMeF]-NH2) | 0.19 | > 1000 |  |  | 
2 | CCCC[C@H](NC(=O)[C@H](Cc1ccc(CS(=O)(=O)O)cc1)NC(=O)[C@H](CC(=O)O)NC(=O)COCCOCCNC(=O)[C@H](CCCCN)NC(=O)COCCOCCNC(=O)COCCOCCNC(=O)CC[C@H](NC(=O)CCCCCCCCCCCCCCCCC(=O)O)C(=O)O)C(=O)NCC(=O)N[C@@H](Cc1c[nH]c2ccccc12)C(=O)N[C@@H](CCCC)C(=O)N(C)[C@H](CC(=O)O)C(=O)N(C)[C@@H](Cc1ccccc1)C(N)=O [Example 19, 2-[2-[2-[[2-[2-[2-[[(4S)-4-Carboxy-4-(17-carboxyheptadecanoylamino)butanoyl]amino]ethoxy]ethoxy]acetyl]amino]ethoxy]ethoxy]acetyl-Lys-2-[2-(2-aminoethoxy)ethoxy]acetyl-Asp-Phe(4-sulfomethyl)-Nle-Gly-Trp-Nle-DMeAsp-MePhe-amide] ({C18 diacid-γGlu-AEEA-AEEA}-K[AEEA]D[Phe(4-CH2SO3H)][Nle]GW[Nle][dNMeD][NMeF]-NH2) |  |  |  |  | EC50 [1]: 0.21 nM
3 | CC(C)C[C@H](NC(=O)[C@H](Cc1ccc(OS(=O)(=O)O)cc1)NC(=O)[C@H](CC(=O)O)NC(=O)COCCOCCNC(=O)COCCOCCNC(=O)CC[C@H](NC(=O)CCCCCCCCCCCCCCCCC(=O)O)C(=O)O)C(=O)NCC(=O)N[C@@H](Cc1c[nH]c2ccccc12)C(=O)N[C@@H](C)C(=O)N(C)[C@H](CC(=O)O)C(=O)N(C)[C@@H](Cc1ccccc1)C(N)=O [Example 40, 2-[2-[2-[[2-[2-[2-[[(4S)-4-Carboxy-4-(17-carboxyheptadecanoylamino)butanoyl]amino]ethoxy]ethoxy]acetyl]amino]ethoxy]ethoxy]acetyl-Asp-sTyr-Leu-Gly-Trp-Ala-DMeAsp-MePhe-amide] ({C18 diacid-γGlu-AEEA-AEEA}-D[sY]LGWA[dNMeD][NMeF]-NH2) |  |  | > 10000 | 0.65 | EC50 [2]: 880 nM
4 | CC(C)C[C@H](NC(=O)[C@H](Cc1ccc(OS(=O)(=O)O)cc1)NC(=O)[C@H](CC(=O)O)NC(=O)COCCOCCNC(=O)COCCOCCNC(=O)CC[C@H](NC(=O)CCCCCCCCCCCCCCCCC(=O)O)C(=O)O)C(=O)NCC(=O)N[C@@H](Cc1c[nH]c2ccccc12)C(=O)N[C@@H](CCC(N)=O)C(=O)N(C)[C@H](CC(=O)O)C(=O)N(C)[C@@H](Cc1ccccc1)C(N)=O [Example 11, 2-[2-[2-[[2-[2-[2-[[(4S)-4-Carboxy-4-(17-carboxyheptadecanoylamino)butanoyl]amino]ethoxy]ethoxy]acetyl]amino]ethoxy]ethoxy]acetyl-Asp-sTyr-Leu-Gly-Trp-Gln-DMeAsp-MePhe-amide] ({C18 diacid-γGlu-AEEA-AEEA}-D[sY]LGWQ[dNMeD][NMeF]-NH2) |  |  | > 10000 | 0.084 | EC50 [2]: > 1000 nM
5 | CC(C)C[C@H](NC(=O)[C@H](Cc1ccc(OS(=O)(=O)O)cc1)NC(=O)[C@@H](N)CC(=O)O)C(=O)NCC(=O)N[C@@H](Cc1c[nH]c2ccccc12)C(=O)N[C@@H](CCS(C)(=O)=O)C(=O)N(C)[C@H](CC(=O)O)C(=O)N(C)[C@@H](Cc1ccccc1)C(N)=O [Example 63, Asp-sTyr-Leu-Gly-Trp-Met(O2)-DMeAsp-MePhe-amide] (H-D[sY]LGW[Met(O2)][dNMeD][NMeF]-NH2) |  | > 1000 | > 10000 | 0.54 | 

Further lines, with some results ahead:

Row | EC50 [1, 5] [nM] | EC50 [2, 6] [nM] | SMILES | IC50 [3] [nM] | IC50 [4] [nM] | other results
6 | 0.21 | > 1000 | CCCC[C@H](NC(=O)[C@H](Cc1c[nH]c2ccccc12)NC(=O)CNC(=O)[C@H](CC(C)C)NC(=O)[C@H](Cc1ccc(OS(=O)(=O)O)cc1)NC(=O)[C@@H](N)CC(=O)O)C(=O)N(C)[C@H](CC(=O)O)C(=O)N[C@@H](Cc1ccccc1)C(N)=O [Example 58, Asp-sTyr-Leu-Gly-Trp-Nle-DMeAsp-Phe-amide] |  |  | IC50 [3, 7]: > 10000 nM
7 | 0.21 |  | CCCC[C@H](NC(=O)[C@H](Cc1c[nH]c2ccccc12)NC(=O)CNC(=O)[C@H](CCCNC(=N)N)NC(=O)[C@H](Cc1ccc(OS(=O)(=O)O)cc1)NC(=O)[C@@H](N)CC(=O)O)C(=O)N(C)[C@H](CC(=O)O)C(=O)N(C)[C@@H](Cc1ccccc1)C(N)=O [Example 68, Asp-sTyr-Arg-Gly-Trp-Nle-DMeAsp-MePhe-amide] (H-D[sY]RGW[Nle][dNMeD][NMeF]-NH2) |  |  | 
8 |  | > 1000 | CCCC[C@H](NC(=O)[C@H](Cc1ccc(CS(=O)(=O)O)cc1)NC(=O)[C@@H](CC(=O)O)NC(=O)COCCOCCNC(=O)COCCOCCNC(=O)CC[C@H](NC(=O)CCCCCCCCCCCCCCCCC(=O)O)C(=O)O)C(=O)NCC(=O)N[C@@H](Cc1c[nH]c2ccccc12)C(=O)N[C@@H](CCCC)C(=O)N(C)[C@H](CC(=O)O)C(=O)N(C)[C@@H](Cc1ccccc1)C(N)=O [Example 25, 2-[2-[2-[[2-[2-[2-[[(4S)-4-Carboxy-4-(17-carboxyheptadecanoylamino)butanoyl]amino]ethoxy]ethoxy]acetyl]amino]ethoxy]ethoxy]acetyl-DAsp-Phe(4-sulfomethyl)-Nle-Gly-Trp-Nle-DMeAsp-MePhe-amide] ({C18 diacid-γGlu-AEEA-AEEA}-[dD][Phe(4-CH2SO3H)][Nle]GW[Nle][dNMeD][NMeF]-NH2) |  |  | IC50 [3, 7]: > 10000 nM; IC50 ([4]; displacement of [125I]-CCK-8s, plasma membranes of 1321-N1 cells expressing CCK-1R, read-out: IC50 (CCK-1R)): 0.072 nM
